{"source": "patent US7772425B2", "about": "“Vitamin D receptor modulators” (Eli Lilly and Company, priority 2002, dated 2010)", "key": {"rat osteocalcin promoter": {"tested_on": "rat osteocalcin promoter", "assay": "OCN (osteocalcin) promoter assay in RG-15 (ROS 17/2.8) cells", "assay_type": "cell-based", "details": "48 hr treatment, luciferase", "outline": "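Rat osteoblast-like RG-15 (ROS 17/2.8) cells stably carrying a luciferase reporter driven by the osteocalcin promoter, treated with compounds in DMSO (0.01% v/v final) in medium with 2% FBS. After 48 hr at 37 °C, cells were lysed and luciferase activity measured.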"}, "female DBF mice": {"tested_on": "female DBF mice", "assay": "Mouse hypercalcemia assay", "assay_type": "in vivo", "details": "orally via gavage for 6 days; serum ionized calcium 6 hours after last dosing", "source_text": "4. The Mouse Hypercalcemia Assay\n(4) Materials and Method for The Mouse Hypercalcemia Assay: […]"}, "[1]": {"tested_on": "KERtr cells (Human skin keratinocyte)", "assay": "Keratinocyte proliferation assay", "assay_type": "cell-based", "details": "Homo sapiens, Keratinocyte, 72 h, BrdU incorporation, read-out: Kera. Prolif. IC50"}, "IL-10": {"tested_on": "IL-10", "assay": "human IL-10 induction assay in PBMCs", "assay_type": "cell-based", "details": "Homo sapiens, PBMC, TPA/PHA treated human PBMCs, IL-10 immunoassay of supernatant", "source_text": "The evaluation of the novel compounds of the invention for psoriasis is done using the Keratinocyte Proliferation Assay in combination with other assays that measure inhibition of IL-2 production and stimulation of IL-10 production in peripheral blood mononuclear cells (PBMCs).\n6. The IL-10 Induction Assay\nThis is an in vitro efficacy assay for psoriasis, abscess and adhesion. Psoriasis involves both keratinocytes and immune cells. IL-10 is a unique cytokine because it is anti-inflammatory and immunosuppressive. This assay tells us whether a VDRM is able to function as an agonist in PBMCs (primary blood mononuclear cells) or not. A lower EC50 value is desirable in this assay since a compound with a lower EC50 value will be a better agonist in PBMCs.\n(6) Materials and Method for human IL-10 Induction Assay:\nIsolation of peripheral blood mononuclear cells (PBMCs):\n• A. Collect 50 ml of human blood and dilute with media, RPMI-1640. • B. Prepare sterile tubes with ficol. • C. Add diluted blood to tubes. • D. Centrifuge. • E. Discard the top layer and collect the cells from middle layer. • F. Divide all cells into four tubes and add media. • G. Centrifuge. • H. Aspirate off media and resuspend. • I. Collect all cells • J. Centrifuge. at 1200 rpm for 10 minutes. • K. Resuspend in RPMI-1640 with 2% FBS and count cells Stimulation of PBMC: • L. Prepare TPA in DMSO. • M. Dissolve PHA in water. • N. Plate TPA/PHA treated PBMCs in well plates. • O. Incubate. Treatment: • P. Prepare all compound dilutions in plain RPMI-1640 media. • Q. Add diluted compound. • R. Incubate. Sample Collection and assay: • S. Remove all the cells by centrifugation and assay the supernatant for IL-10 by immunoassay. • 1) T. Perform IL-10 assay using anti-human IL-10 antibody coated beads, as described by the manufacturer (Linco Research Inc., St. Charles, Mo.)."}}, "data": [{"smiles": "CCC(CC)(c1ccc(OCC(O)C(C)(C)C)c(C)c1)c1ccc(C(=O)Nc2nnn[nH]2)c(C)c1", "note": "(single isomer, unassigned) [Ex. 12a, 3′-[4-(2-hydroxy-3,3-dimethylbutoxy)-3-methylphenyl]-3′-[4-(tetrazol-5-ylaminocarbonyl)-3-methylphenyl]pentane]", "values": [{"measurement": "EC50", "setting": "rat osteocalcin promoter", "result": 1, "unit": "nM"}, {"measurement": "Mouse Hypercal", "setting": "female DBF mice", "result": 300, "unit": "µg/kg/day"}, {"measurement": "IC50", "setting": "[1]", "result": 4, "unit": "nM"}, {"measurement": "IC50", "setting": "IL-10", "result": 52, "unit": "nM"}]}]}
